According to patent publication US4603144A, “Kojic acid ether-ester derivatives” (G. D. Searle & Co., priority 1984, dated 1986):

Biological target: T1, Human Leukocyte Elastase (HLE) (Homo sapiens, UniProt P08246)
T1 sequence (P08246 30-267): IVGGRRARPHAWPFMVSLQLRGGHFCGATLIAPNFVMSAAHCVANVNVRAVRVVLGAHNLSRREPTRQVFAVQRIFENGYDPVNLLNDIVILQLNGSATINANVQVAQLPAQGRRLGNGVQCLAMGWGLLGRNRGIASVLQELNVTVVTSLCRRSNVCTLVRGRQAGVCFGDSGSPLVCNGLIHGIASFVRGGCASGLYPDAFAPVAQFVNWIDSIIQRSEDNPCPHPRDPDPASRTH
Assay: Inhibition of Human Leukocyte Elastase (HLE); hydrolysis of Methoxy-succinyl-Alanyl-Alanyl-Prolyl-Valyl-nitroanilide
Format: biochemical
Settings: for inhibition at 20 µM: 2.0 × 10^-5 Molar; for inhibition at 10 µM: 1.0 × 10^-5 Molar; for inhibition at 5 µM: 5.0 × 10^-6 Molar; for inhibition at 0.2 µM: 2.0 × 10^-7 Molar; for inhibition at 0.05 µM: 5.0 × 10^-8 Molar; for inhibition at 1 µM: 1.0 × 10^-6 Molar
Protocol: Inhibition of Human Leukocyte Elastase (HLE)
This test measures the rate of hydrolysis of Methoxy-succinyl-Alanyl-Alanyl-Prolyl-Valyl-nitroanilide by HLE in the presence and absence of the compound to be tested. The procedure used is as follows. The following stock solutions are prepared.
1. a saline solution of HLE prepared from a composition containing 10% HLE with the remainder being sodium acetate (300 micrograms per ml) wherein the concentration was adjusted to give a change in absorption of 0.12 od units per minute in the assay in the absence derivative,
2. a dimethylsulfoxide solution of the nitroanilide peptide (2m mole),
3. tris-HCl buffer (0.2M,pH 8.0) and
4. a dimethylsulfoxide solution of the derivative to be tested at 20 times the desired final concentration.
The test hydrolysis solution was then prepared by adding 850 microliters buffer, 50 microliters derivative solution, 50 microliters peptide solution to a 1 cm. semi-micro cuvette. The cuvette was capped, slightly shaken and placed in the light chamber of a recording colorimeter where the increase in absorption at 410 nm. due to liberated nitroaniline was measured. Using this procedure, the one minute change in absorption of the test sample containing derivative was compared to the change in absorption in the absence of derivative. A 20% or more decrease in the rate of absorption was interpreted as a positive inhibition.

| inhibition at 20 µM | inhibition at 10 µM | inhibition at 5 µM | inhibition at 0.2 µM | inhibition at 0.05 µM | inhibition at 1 µM | Compound |
| --- | --- | --- | --- | --- | --- | --- |
| 59% | 48% | – | – | – | – | CCCCCCCCCCCCCCCCOCc1cc(=O)c(OC(=O)C(C)C(C)C)co1 (centres unmarked) [Example 18, 2-[(hexadecyloxy)methyl]-4-oxo-4H pyran-5-yl-2,3-dimethylbutanoate] |
| 66% | 73% | 69% | – | – | – | CCCCCCCCCCCCCCCCCCOCc1cc(=O)c(OC(=O)C(C)(C)C)co1 [Example 20, 2-[(octadecyloxy)methyl] -4-oxo-4Hpyran-5-yl-2,2-dimethylpropanoate] |
| 65% | 62% | 36% | – | – | – | CCCCCCCCCCCCCCCCOc1coc(COC(=O)C(C)(C)C)cc1=O [Example 23, 5-Hexadecyloxy-4-oxo-4Hpyran-2-hydroxymethyl-2,2-dimethylpropanoate] |
| 23% | – | – | – | – | – | CCCCCCCCCCCCCCCCOc1coc(COC2CCCCO2)cc1=O (centres unmarked) [Example 21, 5-Hexadecyloxy-2-tetrahydropyrany/oxymethyl-4H pyran-4-one] |
| 67% | 52% | – | – | – | – | CCCCCCCCCCCCCCCCOCc1cc(=O)c(OC(=O)CC(C)C)co1 [Example 19, 2-[(hexadecyloxy)methyl]-4-oxo-4H pyran-5-yl-3-methylbutansate] |
| 86% | 83% | 84% | – | – | – | CCCCCCCCCCCCCCCCOc1coc(C(=O)O)cc1=O [Example 24, 5-Hexadecyloxy-2-carboxyl-4Hpyran-4-one] |

More lines, now with the values behind:

| Compound | inhibition at 20 µM | inhibition at 10 µM | inhibition at 5 µM | inhibition at 0.2 µM | inhibition at 0.05 µM | inhibition at 1 µM |
| --- | --- | --- | --- | --- | --- | --- |
| CCCCCCCCCCCCCCCCOCc1cc(=O)c(O)co1 [Example 13, 5-hydroxy-2-[(hexadecyloxy)methyl]-4Hpyran-4-one] | 23% | – | – | – | – | – |
| CCCCCCCCCCCCCCCCCCOCc1cc(=O)c(OCc2ccccc2)co1 [Example 11, 2-[(octadecyloxy)methyl]-5-(phenylmethoxy)-4Hpyran-4-one] | 24% | – | – | – | – | – |
| CCCCCCCCCCCCCCOCc1cc(=O)c(O)co1 [Example 12, 5-hydroxy-2-[(tetradecyloxy)methyl]-4Hpyran-4-one] | 48% | 34% | – | – | – | – |
| CCCCCCCCCCCCCCOCc1cc(=O)c(OC(=O)C(C)(C)C)co1 [Example 15, 4-oxo-2-[(tetradecyloxy)methyl]-4H pyran-5-yl-2,2-dimethylpropanoate] | 88% | 81% | – | 60% | 38% | – |
| CCCCCCCCCCCCCCCCCCOCc1cc(=O)c(O)co1 [Example 14, 5-hydroxy-2-[(octadecyloxy)methyl]-4Hpyran-4-one] | 50% | 46% | – | – | – | – |
| CCCCCCCCCCCCCCCCOCc1cc(=O)c(OC(=O)C(C)(C)C)co1 [Example 16, 2-[(hexadecyloxy)methyl]-4-oxo-4H pyran-5-yl-2,2-dimethylpropanoate] | 89% | 87% | – | 52% | 27% | 69% |
| CCCCCCCCCCCCCCCCOCc1cc(=O)c(OC(=O)C(C)C)co1 [Example 17, 2-[(hexadecyloxy)methyl]-4-oxo-4H pyran-5-yl-2-methylpropanoate] | – | – | – | 81% | 61% | 88% |
